Experimental findings from US5468756A, “Imidazonaphthyridine derivatives” (Kyowa Hakko Kogyo Co., Ltd., priority 1990, dated 1995) are described below.

Each structure is given as a SMILES string.

One series relates to ddY strain male mice. Put plainly: Acute toxicity (Minimum Lethal Dose). Type of series: in vivo. The procedure: The test compound was orally and intraperitoneally administered to ddY strain male mice weighing 20 to 25 g. MLD (Minimum Lethal Dose) was determined by observing the mortality for […] after the administration.
The test system of series [1] is zymosan-induced paw edema. Put plainly: Effect on zymosan-induced paw edema. To be noted: Rattus norvegicus, po, read-out: Suppression rate for paw swelling, zymosan-induced edema; for inhibition in vivo at 25 mg/kg: 25 mg/kg P.O. Type of series: in vivo, male Wistar rats. As for the experimental part: Male Wistar rats weighing 150 to 160 g (n=3-5) were used in the experiment. After the right hind paw volume was measured with the plethysmograph (TK-101; Unicom Co., Ltd.), the test compound (25, 50 or 100 mg/kg) was orally administered. After one hour, 0.1 ml of 1% carrageenin (λ-carrageenin; PICNIN-A®, Zushi Kagaku Co., Ltd.) was subcutaneously injected into the right hind paw footpad. Three hours after the injection of carrageenin, the right hind paw volume was measured and the swelling rate was determined by the following equation 1. [formula] Vt: the right hind paw volume measured 3 hours after the injection of carrageenin
Vo: the right hind paw volume measured prior to the injection of carrageenin
The suppression rate was calculated by the following equation 2. [formula] Swt: the swelling rate of the group administered with the test compound Swc: the swelling rate of the control group administered with physiological saline solution
b) Effect on zymosan-induced paw edema
The experiment was carried out in the same manner as in the carrageenin-induced paw edema test except that 1% zymosan (Zymosan A®; Sigma Chemical Co.) was used in place of 1% carrageenin and the right hind paw volume was measured […] the injection of the edema-inducing substance instead of 3 hours. The swelling rate and the suppression rate were calculated by equation 1 and equation 2, respectively.

Series [2] has as its system passive Schultz-Dale reaction. Put plainly: Effect on passive Schultz-Dale reaction (broncho-dilative activity), sensitized tracheal strips contracted by antigen. Set-up: species or system male Hartley guinea pigs. To be noted: guinea pig tracheal zig-zag strips, 37° C., antigen egg white albumin 1 μg/ml; read-out: Passive Schultz-Dale reaction IC50 (concentration of 50% relaxation rate). An outline of the steps: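 Male Hartley guinea pigs were passively sensitized i.p. with rabbit anti-OA serum, and tracheal zig-zag strips were taken 24 h later. Compounds were added cumulatively at the plateau, and IC50 (50% relaxation) was taken from the regression line of the concentration-relaxation curves.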

Series [3] relates to platelet activating factor (PAF)-induced mortality. Put plainly: Inhibition effect on platelet activating factor (PAF)-induced mortality. Type of series: in vivo, male dd mice. To be noted: Mus musculus, po, PAF 40 μg/kg i.v., 3 h, n = 10, control group survival 0-20%, read-out: Survival rate of test compound-administered group. The essentials: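 Male dd mice (28–32 g, 10 per group) dosed orally with 50 or 100 mg/kg compound or saline. PAF at 40 μg/kg given intravenously 1 h later; mortality recorded 3 h after PAF injection.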

For series [4], the system named is carrageenin-induced paw edema. Put plainly: Effect on carrageenin-induced paw edema. To be noted: Rattus norvegicus, 3 hours after carrageenin, read-out: Suppression rate for paw swelling, carrageenin-induced edema; for inhibition in vivo at 100 mg/kg: p.o. Type of series: in vivo, male Wistar rats. An outline of the steps: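 Male Wistar rats (150-160 g, n=3-5) dosed orally at 25, 50 or 100 mg/kg, one hour before 0.1 ml 1% carrageenin injected subcutaneously into the right hind footpad. Paw volume by plethysmograph before and 3 h after; suppression of swelling rate relative to saline controls.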
(In general: The carrageenan paw model is a standard test of acute inflammation.)

Regarding `CCOCCn1cnc2c3cccnc3n(-c3ccccc3)c(=O)c21` [Compound 31, 3-(Ethoxyethyl)-5-phenyl-3H-imidazo[4,5-c][1,8]naphthyridin-4(5H)-one], in the series on ddY strain male mice, the “MLD (Minimum Lethal Dose) i.p.” value is greater than 100 mg/kg and the “MLD (Minimum Lethal Dose) p.o.” value was greater than 300 mg/kg. In addition, the inhibition in vivo at 25 mg/kg in series [1] worked out at 57.4%. Also, the IC50 in series [2] stood at 0.13 µM. Besides, the responders at 100 mg/kg in series [3] came to 90%. Besides, in series [4], the inhibition in vivo at 100 mg/kg was 60.6%.

On to `CCCn1cnc2c3cccnc3n(-c3ccccc3)c(=O)c21` [Compound 9, 5-Phenyl-3-n-propyl-3H-imidazo[4,5-c][1,8]naphthyridin-4(5H)-one], for which, in the series with ddY strain male mice, the “MLD (Minimum Lethal Dose) i.p.” value is given as greater than 100 mg/kg and the “MLD (Minimum Lethal Dose) p.o.” value is reported as greater than 100 mg/kg. The inhibition in vivo at 25 mg/kg in series [1] amounted to 61.2%. Moreover, in series [2], the IC50 is 6.5 µM. Also, the responders at 100 mg/kg in series [3] was 100%. For the same molecule, in series [4], the inhibition in vivo at 100 mg/kg came out at 52.4%.

For the molecule `CC(C)n1cnc2c3cccnc3n(-c3ccccc3)c(=O)c21` [Compound 10, 3-Isopropyl-5-phenyl-3H-imidazo[4,5-c][1,8]naphthyridin-4(5H)-one], in the series on ddY strain male mice, the “MLD (Minimum Lethal Dose) i.p.” value is greater than 100 mg/kg and the “MLD (Minimum Lethal Dose) p.o.” value is greater than 100 mg/kg. Further, the inhibition in vivo at 100 mg/kg in series [1] was determined as 53%. In addition, the IC50 in series [2] came out at 6 µM. In series [3], the responders at 100 mg/kg was 80%. Moreover, in series [4], the inhibition in vivo at 100 mg/kg came to 43.1%.

For `CC(C)Cn1cnc2c3cccnc3n(-c3ccccc3)c(=O)c21` [Compound 12, 3-Isobutyl-5-phenyl-3H-imidazo[4,5-c][1,8]naphthyridin-4(5H)-one], in the series on ddY strain male mice, the “MLD (Minimum Lethal Dose) i.p.” value is greater than 50 mg/kg and the “MLD (Minimum Lethal Dose) p.o.” value is listed as greater than 200 mg/kg. Besides, the inhibition in vivo at 25 mg/kg in series [1] was 69.7%. The IC50 in series [2] came to 8.5 µM. In addition, in series [3], the responders at 100 mg/kg was 100%. Besides, in series [4], the inhibition in vivo at 100 mg/kg worked out at 48.5%.

Consider `CCCCn1c(=O)c2c(ncn2CCC)c2cccnc21` [Compound 29, 5-n-Butyl-3-n-propyl-3H-imidazo[4,5-c][1,8]naphthyridin-4(5H)-one], for which, in the series with ddY strain male mice, the “MLD (Minimum Lethal Dose) i.p.” value was greater than 100 mg/kg and the “MLD (Minimum Lethal Dose) p.o.” value is greater than 100 mg/kg. The inhibition in vivo at 25 mg/kg in series [1] amounted to 21.1%. The IC50 in series [2] was found to be 0.29 µM. In addition, in series [3], the responders at 100 mg/kg stood at 100%. Also, the inhibition in vivo at 100 mg/kg in series [4] came out at 56.1%.

`CCn1cnc2c3cccnc3n(-c3ccccc3)c(=O)c21` [Compound 8, 3-Ethyl-5-phenyl-3H-imidazo[4,5-c][1,8]naphthyridin-4(5H)-one]: in the series with ddY strain male mice, the “MLD (Minimum Lethal Dose) i.p.” value is recorded as greater than 50 mg/kg and the “MLD (Minimum Lethal Dose) p.o.” value is greater than 50 mg/kg. The inhibition in vivo at 100 mg/kg in series [1] was 64.9%. For the same molecule, the IC50 in series [2] came out at 0.45 µM. In series [3], the responders at 100 mg/kg turned out to be 70%. Also, in series [4], the inhibition in vivo at 100 mg/kg turned out to be 56.1%.

Regarding `O=c1c2c(ncn2Cc2ccc(F)cc2)c2cccnc2n1-c1ccccc1` [Compound 44, 3-(4-Fluorophenyl)methyl-5-phenyl-3H-imidazo[4,5-c][1,8]naphthyridin-4(5H)-one], in the series with ddY strain male mice, the “MLD (Minimum Lethal Dose) i.p.” value was greater than 50 mg/kg and the “MLD (Minimum Lethal Dose) p.o.” value is greater than 300 mg/kg. Also, in series [1], the inhibition in vivo at 25 mg/kg came to 63.9%. The IC50 in series [2] stood at 6.6 µM. In addition, in series [3], the responders at 100 mg/kg came out at 50%. For the same molecule, the inhibition in vivo at 100 mg/kg in series [4] was 42.8%.

`C=CCn1cnc2c3cccnc3n(-c3ccccc3)c(=O)c21` [Compound 33, 3-(2-propenyl)-5-phenyl-3H-imidazo[4,5-c][1,8]naphthyridin-4(5H)-one]: in the series on ddY strain male mice, the “MLD (Minimum Lethal Dose) i.p.” value is given as greater than 100 mg/kg and the “MLD (Minimum Lethal Dose) p.o.” value is greater than 300 mg/kg. For the same molecule, the inhibition in vivo at 25 mg/kg in series [1] came to 67.3%. Moreover, the IC50 in series [2] was 0.0071 µM. Also, the responders at 100 mg/kg in series [3] came out at 100%. Also, the inhibition in vivo at 50 mg/kg in series [4] (po, 50 mg/kg P.O.) stood at 67.8%.
